Source: patent US20230285377A1, “KCNT1 INHIBITORS AND METHODS OF USE” (Praxis Precision Medicines, Inc., priority 2020, published 2023)

These compounds were tested against KCNT1 (KNa1.1, Slack) (Homo sapiens (Human), UniProt Q5JUK3) (assay: KCNT1-WT-Basal - Patch Clamp Assay). Settings: tetracycline inducible HEK-TREX cell line; SyncroPatch 384PE automated patch clamp; step to 0 mV; room temperature.
Chain of KCNT1 (KNa1.1, Slack) (Q5JUK3 whole entry): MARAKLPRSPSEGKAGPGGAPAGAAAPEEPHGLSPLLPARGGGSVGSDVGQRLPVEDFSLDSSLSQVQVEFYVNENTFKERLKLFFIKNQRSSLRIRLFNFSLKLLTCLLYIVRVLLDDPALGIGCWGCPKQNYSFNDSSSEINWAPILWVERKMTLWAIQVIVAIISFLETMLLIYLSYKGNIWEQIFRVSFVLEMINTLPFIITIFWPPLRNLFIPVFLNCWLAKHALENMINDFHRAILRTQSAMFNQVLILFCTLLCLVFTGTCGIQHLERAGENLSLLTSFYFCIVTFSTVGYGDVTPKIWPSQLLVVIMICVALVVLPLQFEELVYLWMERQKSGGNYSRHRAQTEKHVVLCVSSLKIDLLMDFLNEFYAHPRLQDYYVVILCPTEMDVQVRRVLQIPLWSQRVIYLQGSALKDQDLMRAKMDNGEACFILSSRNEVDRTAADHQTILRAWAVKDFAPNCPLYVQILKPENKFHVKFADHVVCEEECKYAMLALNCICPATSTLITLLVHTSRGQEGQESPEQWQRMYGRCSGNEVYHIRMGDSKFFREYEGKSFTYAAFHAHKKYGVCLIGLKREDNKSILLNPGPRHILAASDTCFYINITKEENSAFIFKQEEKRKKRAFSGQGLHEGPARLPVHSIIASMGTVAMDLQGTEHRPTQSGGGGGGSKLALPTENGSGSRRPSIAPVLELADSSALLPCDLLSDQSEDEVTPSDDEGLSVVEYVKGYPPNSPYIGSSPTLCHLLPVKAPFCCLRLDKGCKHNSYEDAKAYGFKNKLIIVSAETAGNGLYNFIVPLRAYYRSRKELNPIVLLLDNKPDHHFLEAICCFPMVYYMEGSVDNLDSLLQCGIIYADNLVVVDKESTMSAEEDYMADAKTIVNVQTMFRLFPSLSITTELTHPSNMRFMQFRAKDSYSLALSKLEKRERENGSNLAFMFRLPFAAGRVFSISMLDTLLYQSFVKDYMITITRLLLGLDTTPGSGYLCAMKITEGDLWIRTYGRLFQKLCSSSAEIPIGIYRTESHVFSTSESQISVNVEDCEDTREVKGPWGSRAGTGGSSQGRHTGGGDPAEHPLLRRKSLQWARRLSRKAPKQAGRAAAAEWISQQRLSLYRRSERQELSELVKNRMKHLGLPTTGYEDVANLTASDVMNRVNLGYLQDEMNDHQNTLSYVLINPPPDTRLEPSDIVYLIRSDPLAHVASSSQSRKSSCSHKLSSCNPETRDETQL
Type: cell-based
Experimental: Inhibition of KCNT1 (KNa1.1, Slack) was evaluated using a tetracycline inducible cell line (HEK-TREX). Currents were recorded using the SyncroPatch 384PE automated, patch clamp system. Pulse generation and data collection were performed with PatchController384 V1.3.0 and DataController384 V1.2.1 (Nanion Technologies). The access resistance and apparent membrane capacitance were estimated using built-in protocols. Current were recorded in perforated patch mode (10 µM escin) from a population of cells. The cells were lifted, triturated, and resuspended at 800,000 cells/ml. The cells were allowed to recover in the cell hotel prior to experimentation. Currents were recorded at room temperature. The external solution contained the following (in mM): NaCl 105, NMDG 40, KC1 4, MgC12 1, CaC12 5 and HEPES 10 (pH = 7.4, Osmolarity ~300 mOsm). The extracellular solution was used as the wash, reference and compound delivery solution. The internal solution contained the following (in mM): NaCl 70, KF 70, KC1 10, EGTA 5, HEPES 5 and Escin 0.01 (pH = 7.2, Osmolarity ~295 mOsm). Escin is made at a 5 mM stock in water, aliquoted, and stored at -20° C. The compound plate was created at 2x concentrated in the extracellular solution. The compound was diluted to 1:2 when added to the recording well. The amount of DMSO in the extracellular solution was held constant at the level used for the highest tested concentration. A holding potential of -80 mV with a 100 ms step to 0 mV was used. Mean current was measured during the step to 0 mV. […] The average mean current from 3 sweeps was calculated and the % inhibition of each compound was calculated. The % Inhibition as a function of the compound concentration was fit with a Hill equation to derive IC50, slope, min and max parameters. If KCNT1 inhibition was less than 50% at the highest tested concentration or if an IC50 could not be calculated, then a percent inhibition was reported in place of the IC50.
In this table, “A” indicates IC50 of less than or equal to 1 µM; “B” indicates inhibition of between 1 µM to 20 µM; and “C” indicates inhibition of greater than or equal to 20 µM.
Compound `C[C@H](NC(=O)C1CCCCC1)c1cc(-c2ccnc(C(F)(F)F)c2)no1` (single isomer, unassigned) [Example 27] has an IC50 of 1 to 20 µM. `C[C@@H](NC(=O)Cc1ccccc1)c1cc(-c2ccnc(C(F)(F)F)c2)no1` (single isomer, unassigned) [Example 28] gave an IC50 of no less than 20 µM. In the case of `C[C@H](NC(=O)Cc1ccccc1)c1cc(-c2ccnc(C(F)(F)F)c2)no1` (single isomer, unassigned) [Example 29], the IC50 is reported as 1 to 20 µM. `C[C@@H](NC(=O)c1cc(C(F)F)nn1C)c1cc(-c2ccnc(C(F)(F)F)c2)no1` (single isomer, unassigned) [Example 30] showed an IC50 of 1 to 20 µM. With `C[C@H](NC(=O)c1cc(C(F)F)nn1C)c1cc(-c2ccnc(C(F)(F)F)c2)no1` (single isomer, unassigned) [Example 31] the IC50 was no more than 1 µM. Compound `C[C@H](NC(=O)c1cccc(C(F)(F)F)c1)c1cc(-c2ccnc(C(F)(F)F)c2)no1` (single isomer, unassigned) [Example 32] has an IC50 of no more than 1 µM. With `C[C@@H](NC(=O)c1cccc(C(F)(F)F)c1)c1cc(-c2ccnc(C(F)(F)F)c2)no1` (single isomer, unassigned) [Example 33] the IC50 was 1 to 20 µM. `C[C@H](NC(=O)N1CCCc2ccccc21)c1cc(-c2ccnc(C(F)(F)F)c2)no1` (single isomer, unassigned) [Example 34] was tested, and the IC50 was 1 to 20 µM. For `C[C@@H](NC(=O)N1CCCc2ccccc21)c1cc(-c2ccnc(C(F)(F)F)c2)no1` (single isomer, unassigned) [Example 35], the IC50 was no more than 1 µM. Work on `C[C@@H](NC(=O)c1ccnn1C1CCC1)c1cc(-c2ccnc(C(F)(F)F)c2)no1` (single isomer, unassigned) [Example 36] yielded an IC50 of no more than 1 µM. For `C[C@H](NC(=O)c1ccnn1C1CCC1)c1cc(-c2ccnc(C(F)(F)F)c2)no1` (single isomer, unassigned) [Example 37], the IC50 was 1 to 20 µM. With `C[C@H](NC(=O)N1CCOc2ccccc21)c1cc(-c2ccnc(C(F)(F)F)c2)no1` (single isomer, unassigned) [Example 38] the IC50 was 1 to 20 µM. `C[C@@H](NC(=O)N1CCOc2ccccc21)c1cc(-c2ccnc(C(F)(F)F)c2)no1` (single isomer, unassigned) [Example 39] was tested, and the IC50 was no more than 1 µM. In the case of `COCc1cc(-c2nsc([C@H](C)NC(=O)c3cc(C(F)(F)F)nn3C)n2)ccn1` (single isomer, unassigned) [Example 42], the IC50 is reported as 1 to 20 µM. In the case of `COCc1cc(-c2nsc([C@@H](C)NC(=O)c3cc(C(F)(F)F)nn3C)n2)ccn1` (single isomer, unassigned) [Example 43], the IC50 is reported as 1 to 20 µM. For `CC(NC(=O)c1cc(C(F)(F)F)nn1C)c1nc(-c2ccnc(C(F)(F)F)c2)ns1` (stereo not drawn) [Example 1, 1-methyl-3-(trifluoromethyl)-N-(1-(3-(2-(trifluoromethyl)pyridin-4-yl)-1,2,4-thiadiazol-5-yl)ethyl)-1H-pyrazole-5-carboxamide], the IC50 was no more than 1 µM. `C[C@H](NC(=O)c1ccccc1)c1nc(-c2ccnc(C3CC3)c2)ns1` [Example 4, (S)-N-(1-(3-(2-cyclopropylpyridin-4-yl)-1,2,4-thiadiazol-5-yl)ethyl)benzamide] showed an IC50 of no more than 1 µM. Work on `C[C@@H](NC(=O)c1ccccc1)c1nc(-c2ccnc(C3CC3)c2)ns1` [Example 5, (R)-N-(1-(3-(2-cyclopropylpyridin-4-yl)-1,2,4-thiadiazol-5-yl)ethyl)benzamide] yielded an IC50 of no more than 1 µM. Compound `Cc1cc(-c2nsc([C@H](C)NC(=O)c3cc(C(F)(F)F)nn3C)n2)ccn1` [Example 40, 2-methyl-N-[(1S)-1-[3-(2-methyl-4-pyridyl)-1,2,4-thiadiazol-5-yl]ethyl]-5-(trifluoromethyl)pyrazole-3-carboxamide] has an IC50 of 1 to 20 µM. `Cc1cc(-c2nsc([C@@H](C)NC(=O)c3cc(C(F)(F)F)nn3C)n2)ccn1` [Example 41, (R)-1-methyl-N-(1-(3-(2-methylpyridin-4-yl)-1,2,4-thiadiazol-5-yl)ethyl)-3-(trifluoromethyl)-1H-pyrazole-5-carboxamide] showed an IC50 of 1 to 20 µM. For `COc1cc(-c2nsc([C@H](C)NC(=O)c3cc(C(F)(F)F)nn3C)n2)ccn1` [Example 44, 2-methyl-N-[(1S)-1-[3-(2-methoxy-4-pyridyl)-1,2,4-thiadiazol-5-yl]ethyl]-5-(trifluoromethyl)pyrazole-3-carboxamide], the IC50 was no more than 1 µM. Compound `COc1cc(-c2nsc([C@@H](C)NC(=O)c3cc(C(F)(F)F)nn3C)n2)ccn1` [Example 45, 2-methyl-N-[(1R)-1-[3-(2-methoxy-4-pyridyl)-1,2,4-thiadiazol-5-yl]ethyl]-5-(trifluoromethyl)pyrazole-3-carboxamide] has an IC50 of no more than 1 µM. Compound `C[C@H](NC(=O)c1cc(C(F)(F)F)nn1C)c1nc(N2CCCCC2)ns1` [Example 46, 2-methyl-N-[(1S)-1-[3-(1-piperidyl)-1,2,4-thiadiazol-5-yl]ethyl]-5-(trifluoromethyl)pyrazole-3-carboxamide] has an IC50 of 1 to 20 µM. For `C[C@@H](NC(=O)c1cc(C(F)(F)F)nn1C)c1nc(N2CCCCC2)ns1` [Example 47, 2-methyl-N-[(1R)-1-[3-(1-piperidyl)-1,2,4-thiadiazol-5-yl]ethyl]-5-(trifluoromethyl)pyrazole-3-carboxamide], the IC50 was 1 to 20 µM.
